Laboratory results from patent US20240360165A1, “INHIBITORS OF CYCLIN DEPENDENT KINASE 7 (CDK7)” (Syros Pharmaceuticals, Inc., priority 2016, published 2024).
pIC50: −log10 of the molar value. Read-outs that look alike come from different tables or passages of the source.

Experiments:
[1] = target: T1, CDK12 (aa686-1082)/Cyclin K complex (Homo sapiens, UniProt Q9NYV4); assay: CDK12 inhibition assay (Caliper/LabChip EZ Reader kinase assay); type: biochemical; conditions: Table 1; CDK12 (aa686-1082)/Cyclin K 50 nM, ATP 2 mM, 3 hr at 27° C.
T1 construct: CDK12 (aa686-1082)/Cyclin K complex
T1 sequence (Q9NYV4 686-1082, species assumed): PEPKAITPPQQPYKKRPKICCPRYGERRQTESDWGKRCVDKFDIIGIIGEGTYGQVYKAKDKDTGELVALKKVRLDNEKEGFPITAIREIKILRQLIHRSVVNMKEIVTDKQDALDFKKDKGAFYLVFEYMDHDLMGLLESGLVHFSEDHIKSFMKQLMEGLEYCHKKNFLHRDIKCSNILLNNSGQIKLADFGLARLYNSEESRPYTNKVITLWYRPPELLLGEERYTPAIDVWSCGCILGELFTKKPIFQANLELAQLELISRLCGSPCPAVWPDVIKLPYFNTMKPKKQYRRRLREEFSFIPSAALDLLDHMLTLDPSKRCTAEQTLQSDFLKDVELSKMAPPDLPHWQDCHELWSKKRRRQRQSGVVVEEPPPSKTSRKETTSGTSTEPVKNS
T1 sequence (O75909 whole entry partner, species assumed, the tested form may be a part): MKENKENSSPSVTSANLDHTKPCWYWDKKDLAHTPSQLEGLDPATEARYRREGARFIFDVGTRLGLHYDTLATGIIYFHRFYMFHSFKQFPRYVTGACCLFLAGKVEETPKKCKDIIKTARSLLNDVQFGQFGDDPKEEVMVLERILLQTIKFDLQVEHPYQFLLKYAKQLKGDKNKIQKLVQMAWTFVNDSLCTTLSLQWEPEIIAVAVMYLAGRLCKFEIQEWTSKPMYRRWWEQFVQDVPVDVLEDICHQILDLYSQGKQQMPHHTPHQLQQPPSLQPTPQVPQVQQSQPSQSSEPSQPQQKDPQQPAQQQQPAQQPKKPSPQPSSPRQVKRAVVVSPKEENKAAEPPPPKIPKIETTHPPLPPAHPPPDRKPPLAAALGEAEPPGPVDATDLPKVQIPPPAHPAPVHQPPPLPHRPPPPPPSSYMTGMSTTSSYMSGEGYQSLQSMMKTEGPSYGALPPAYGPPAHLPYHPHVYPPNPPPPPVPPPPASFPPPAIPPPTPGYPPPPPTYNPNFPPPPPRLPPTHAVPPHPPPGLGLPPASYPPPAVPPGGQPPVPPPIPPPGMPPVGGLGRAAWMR

[2] = target: CDK7/Cyclin H/MAT1 complex (Homo sapiens, UniProt P50613); assay: CDK7 inhibition assay (Caliper/LabChip EZ Reader kinase assay); type: biochemical; conditions: Table 1; CDK7/Cyclin H/MAT1 6 nM, ATP 2 mM, 35 min at 27° C.
CDK7/Cyclin H/MAT1 complex, sequence (P50613 whole entry, species assumed): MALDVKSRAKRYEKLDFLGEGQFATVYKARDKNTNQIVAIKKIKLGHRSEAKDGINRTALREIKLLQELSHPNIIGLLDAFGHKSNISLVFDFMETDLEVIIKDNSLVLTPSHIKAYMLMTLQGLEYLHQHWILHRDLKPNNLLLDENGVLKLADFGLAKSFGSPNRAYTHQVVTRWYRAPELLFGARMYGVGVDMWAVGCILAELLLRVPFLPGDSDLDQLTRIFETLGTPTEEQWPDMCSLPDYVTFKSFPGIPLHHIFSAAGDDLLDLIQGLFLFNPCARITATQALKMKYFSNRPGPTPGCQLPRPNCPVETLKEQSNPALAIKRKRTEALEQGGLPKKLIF
CDK7/Cyclin H/MAT1 complex, sequence (P51946 whole entry partner, species assumed): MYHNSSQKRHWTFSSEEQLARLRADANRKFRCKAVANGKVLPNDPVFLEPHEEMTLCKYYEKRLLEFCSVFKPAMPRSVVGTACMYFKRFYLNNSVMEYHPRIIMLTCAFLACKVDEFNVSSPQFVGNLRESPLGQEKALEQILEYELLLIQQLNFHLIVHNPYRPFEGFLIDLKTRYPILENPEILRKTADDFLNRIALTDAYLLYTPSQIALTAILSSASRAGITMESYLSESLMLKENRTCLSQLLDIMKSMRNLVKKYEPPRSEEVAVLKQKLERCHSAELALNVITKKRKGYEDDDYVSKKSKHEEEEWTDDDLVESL
CDK7/Cyclin H/MAT1 complex, sequence (P51948 whole entry partner, species assumed): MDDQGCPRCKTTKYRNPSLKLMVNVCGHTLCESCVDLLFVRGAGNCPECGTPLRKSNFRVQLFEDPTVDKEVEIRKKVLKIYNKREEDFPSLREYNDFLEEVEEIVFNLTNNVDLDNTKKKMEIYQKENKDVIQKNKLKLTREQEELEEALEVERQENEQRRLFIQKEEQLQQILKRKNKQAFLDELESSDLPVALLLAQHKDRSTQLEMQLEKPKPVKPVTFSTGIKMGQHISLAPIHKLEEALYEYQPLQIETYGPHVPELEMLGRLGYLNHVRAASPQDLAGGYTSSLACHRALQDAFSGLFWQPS
Summary of the method: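 A Perkin Elmer Caliper/LabChip EZ Reader (Waltham, MA) platform served as the basis for this CDK7 kinase inhibition assay. The work was carried out by Biortus Biosciences, located in Jiangyin, Jiangsu Province, P.R. of China. Each CDK studied had its own kinase assay, and compounds were evaluated for their ability to block CDK7 activity.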

[3] = target: CDK9/Cyclin T1 complex (Homo sapiens, UniProt P50750); assay: CDK9 inhibition assay (Caliper/LabChip EZ Reader kinase assay); type: biochemical; conditions: Table 1; CDK9/Cyclin T1 8 nM, ATP 2 mM, 15 min at 27° C.
CDK9/Cyclin T1 complex, sequence (P50750 whole entry, species assumed): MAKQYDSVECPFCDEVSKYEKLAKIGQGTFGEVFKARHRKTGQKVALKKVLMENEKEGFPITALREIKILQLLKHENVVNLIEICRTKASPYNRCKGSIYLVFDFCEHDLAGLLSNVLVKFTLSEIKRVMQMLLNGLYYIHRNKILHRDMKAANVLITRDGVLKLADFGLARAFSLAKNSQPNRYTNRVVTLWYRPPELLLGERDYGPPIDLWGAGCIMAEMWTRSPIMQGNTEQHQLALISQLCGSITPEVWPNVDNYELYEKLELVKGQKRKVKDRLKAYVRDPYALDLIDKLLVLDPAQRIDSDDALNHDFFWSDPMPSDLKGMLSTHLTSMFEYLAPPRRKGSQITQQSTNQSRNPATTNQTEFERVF
CDK9/Cyclin T1 complex, sequence (O60563 whole entry partner, species assumed): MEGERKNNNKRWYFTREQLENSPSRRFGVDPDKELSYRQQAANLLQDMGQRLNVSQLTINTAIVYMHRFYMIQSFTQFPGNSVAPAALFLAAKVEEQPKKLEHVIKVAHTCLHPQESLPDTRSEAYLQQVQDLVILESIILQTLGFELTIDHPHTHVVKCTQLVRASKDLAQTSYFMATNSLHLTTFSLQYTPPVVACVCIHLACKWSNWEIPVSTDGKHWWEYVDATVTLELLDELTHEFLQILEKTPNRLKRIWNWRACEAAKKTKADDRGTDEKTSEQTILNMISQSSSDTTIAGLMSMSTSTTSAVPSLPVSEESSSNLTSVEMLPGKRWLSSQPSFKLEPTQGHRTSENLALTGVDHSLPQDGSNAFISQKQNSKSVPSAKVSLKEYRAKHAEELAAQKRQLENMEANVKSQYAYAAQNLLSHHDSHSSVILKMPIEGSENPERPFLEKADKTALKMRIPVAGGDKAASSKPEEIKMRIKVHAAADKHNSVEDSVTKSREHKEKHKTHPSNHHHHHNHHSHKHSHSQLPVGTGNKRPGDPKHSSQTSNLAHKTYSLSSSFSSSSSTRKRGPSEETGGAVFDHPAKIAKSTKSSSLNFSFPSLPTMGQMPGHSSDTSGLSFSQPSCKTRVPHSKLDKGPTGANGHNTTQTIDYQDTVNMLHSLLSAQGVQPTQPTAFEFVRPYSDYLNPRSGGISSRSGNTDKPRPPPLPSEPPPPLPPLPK
Summary of the method: (§1)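 Activity read as fluorescent peptide conversion on a LabChip EZ Reader. For CDK2/Cyclin E1 (0.5 nM), substrate was 5-FAM-CDK7tide (2 μM) with 2 mM MgCl2; for CDK9/Cyclin T1 (8 nM), 5-FAM-CDK9tide (2 μM) with 10 mM MgCl2.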

[4] = target: CDK2/Cyclin E1 complex (Homo sapiens, UniProt P24941); assay: CDK2 inhibition assay (Caliper/LabChip EZ Reader kinase assay); type: biochemical; conditions: Table 1; CDK2/Cyclin E1 0.5 nM, ATP 2 mM, 35 min at 27° C.
Summary of the method: as §1

[5] = tested on: HCC70 cells; assay: Inhibition of proliferation of HCC70 cells (CyQUANT Direct Cell Proliferation Assay, 72 hour); type: cell-based, human; conditions: read-out: Inhibition of Proliferation of HCC70 Cells (calculated IC50)
Protocol: HCC70 cells are a cell line derived from human triple negative breast cancer. […] Known CDK inhibitors dinaciclib or N-((1S,3R)-3-((5-chloro-4-(1H-indol-3-yl) pyrimidin-2-yl)amino)cyclohexyl)-5-((E)-4-(dimethylamino)but-2-enamido)picolinamide and triptolide were used as positive controls. […] The cells were cultured at 37° C. in a humidified chamber in the presence of 5% CO2. Proliferation assays were conducted over a 72 hour time period. CyQUANT® Direct Cell Proliferation Assay (Life Technologies, Chicago, IL USA) was used to assess the anti-proliferative effects of the compounds following manufacturer's directions and utilizing the reagents supplied with the CyQUANT® Direct Cell kit.

| pIC50 [1] | pIC50 [2] | pIC50 [3] | pIC50 [4] | SMILES | pIC50 ([5]; Homo sapiens, HCC70, 72 h) | pIC50 [5] |
| --- | --- | --- | --- | --- | --- | --- |
| 5.30 to 6.70 | > 7.70 | 5.30 to 6.70 | 5.30 to 6.70 | Cc1ccncc1-c1ccc2c(-c3nc(NC4CCCNC4)ncc3C(F)(F)F)c[nH]c2c1 (stereo not drawn) [Compound 336] | > 7.00 | – |
| 5.30 to 6.70 | > 7.70 | 5.30 to 6.70 | 5.30 to 6.70 | FC(F)(F)c1cnc(N[C@H]2CCCNC2)nc1-c1c[nH]c2cc(-c3nccs3)ccc12 [Compound 332] | – | > 7.00 |
| 5.30 to 6.70 | > 7.70 | 5.30 to 6.70 | 5.30 to 6.70 | [O-][S+](c1ccc2c(-c3nc(N[C@H]4CCCNC4)ncc3C(F)(F)F)c[nH]c2c1)C(F)F (stereo partly drawn) [Compound 380, 4-[6-(difluoromethylsulfinyl)-1H-indol-3-yl]-N-[(3S)-3-piperidyl]-5-(trifluoromethyl) pyrimidin-2-amine] | > 7.00 | – |
| 5.30 to 6.70 | 6.70 to 7.70 | < 5.30 | 5.30 to 6.70 | FC(F)(F)c1cnc(N[C@H]2CCCNC2)nc1-c1c[nH]c2cc(-c3cccc4cnccc34)ccc12 [Compound 344] | – | 6.00 to 7.00 |
| 5.30 to 6.70 | > 7.70 | < 5.30 | 5.30 to 6.70 | Oc1ncccc1-c1ccc2c(-c3nc(N[C@H]4CCCNC4)ncc3C(F)(F)F)c[nH]c2c1 [Compound 310, 3-[3-[2-[[(3S)-3-piperidyl]amino]-5-(trifluoromethyl)pyrimidin-4-yl]-1H-indol-6-yl]pyridin-2-ol] | 6.00 to 7.00 | – |
| 5.30 to 6.70 | > 7.70 | 5.30 to 6.70 | 5.30 to 6.70 | OCc1cncc(-c2ccc3c(-c4nc(N[C@H]5CCCNC5)ncc4C(F)(F)F)c[nH]c3c2)c1 [Compound 318] | – | 6.00 to 7.00 |
| 5.30 to 6.70 | > 7.70 | 5.30 to 6.70 | 5.30 to 6.70 | CN(C)S(=O)(=O)c1ccc2c(-c3nc(N[C@H]4CCCNC4)ncc3C(F)(F)F)c[nH]c2c1 [Compound 357, N,N-dimethyl-3-[2-[[(3S)-3-piperidyl]amino]-5-(trifluoromethyl)pyrimidin-4-yl]-1H-indole-6-sulfonamide] | 5.30 to 6.00 | – |
| 5.30 to 6.70 | 6.70 to 7.70 | – | – | FC(F)(F)c1cnc(N[C@H]2CCCNC2)nc1-c1c[nH]c2cc(-c3ccc4ccncc4c3)ccc12 [Compound 325] | – | 6.00 to 7.00 |

The remaining lines, values behind:

| SMILES | pIC50 [1] | pIC50 [2] | pIC50 [3] | pIC50 [4] | pIC50 ([5]; Homo sapiens, HCC70, 72 h) | pIC50 [5] |
| --- | --- | --- | --- | --- | --- | --- |
| CCCc1cnc(N[C@H]2CCCNC2)nc1-c1c[nH]c2c(S(C)(=O)=O)c(C#N)ccc12 [Compound 367, 7-methylsulfonyl-3-[2-[[(3S)-3-piperidyl]amino]-5-propyl-pyrimidin-4-yl]-1H-indole-6-carbonitrile] | < 5.30 | 6.70 to 7.70 | < 5.30 | < 5.30 | 5.30 to 6.00 | – |
| FC(F)(F)Sc1cnc(NC2CCCNC2)nc1-c1c[nH]c2ccccc12 (stereo not drawn) [Compound 305, 4-(1H-indol-3-yl)-N-(piperidin-3-yl)-5-((trifluoromethyl)thio)pyrimidin-2-amine] | 5.30 to 6.70 | > 7.70 | 5.30 to 6.70 | 5.30 to 6.70 | 5.30 to 6.00 | – |
| CN1CCC[C@H](Nc2ncc(C(F)(F)F)c(-c3c[nH]c4cc(S(C)(=O)=O)ccc34)n2)C1 [Compound 364, N-[(3S)-1-methyl-3-piperidyl]-4-(6-methylsulfonyl-1H-indol-3-yl)-5-(trifluoromethyl)pyrimidin-2-amine] | < 5.30 | 6.70 to 7.70 | < 5.30 | < 5.30 | 5.30 to 6.00 | – |
| CC1(O)CCN(C(=O)c2ccc3c(-c4nc(N[C@H]5CCCNC5)ncc4C(F)(F)F)c[nH]c3c2)CC1 [Compound 282, (4-hydroxy-4-methyl-1-piperidyl)-[3-[2-[[(3S)-3-piperidyl]amino]-5-(trifluoromethyl)pyrimidin-4-yl]-1H-indol-6-yl] methanone] | 5.30 to 6.70 | > 7.70 | < 5.30 | 5.30 to 6.70 | 6.00 to 7.00 | – |
| N#Cc1ccc2c(-c3nc(N[C@H]4CCC5(CCC5)NC4)ncc3C(F)(F)F)c[nH]c2c1 (single isomer, unassigned) [Compound 378] | < 5.30 | 6.70 to 7.70 | < 5.30 | < 5.30 | 5.30 to 6.00 | – |
| O=C(c1ccc2c(-c3nc(N[C@H]4CCCNC4)ncc3C(F)(F)F)c[nH]c2c1)N1CC[C@@](O)(C(F)(F)F)C1 (single isomer, unassigned) [Compound 300] | 5.30 to 6.70 | > 7.70 | 5.30 to 6.70 | 5.30 to 6.70 | 6.00 to 7.00 | – |
| CC1CCNCC1Nc1ncc(C(F)(F)F)c(-c2c[nH]c3ccccc23)n1 (single isomer, unassigned) [Compound 372] | 5.30 to 6.70 | 6.70 to 7.70 | 5.30 to 6.70 | 5.30 to 6.70 | – | 6.00 to 7.00 |
| O=S(=O)(c1ccc2c(-c3nc(N[C@H]4CCCNC4)ncc3C(F)(F)F)c[nH]c2c1)C(F)F [Compound 375, 4-[6-(difluoromethylsulfonyl)-1H-indol-3-yl]-N-[(3S)-3-piperidyl]-5-(trifluoromethyl)pyrimidin-2-amine] | 5.30 to 6.70 | > 7.70 | 5.30 to 6.70 | 5.30 to 6.70 | 6.00 to 7.00 | – |
| CP(C)(=O)c1cccc2c(-c3nc(N[C@H]4CCCNC4)ncc3C(F)(F)F)c[nH]c12 [Compound 352, (S)-dimethyl(3-(2-(piperidin-3-ylamino)-5-(trifluoromethyl)pyrimidin-4-yl)-1H-indol-7-yl)phosphine oxide] | < 5.30 | < 5.30 | < 5.30 | < 5.30 | 5.30 to 6.00 | – |
| O=C1CCN(C(=O)c2ccc3c(-c4nc(N[C@H]5CCCNC5)ncc4C(F)(F)F)c[nH]c3c2)C1 [Compound 302, 1-[3-[2-[[(3S)-3-piperidyl]amino]-5-(trifluoromethyl)pyrimidin-4-yl]-1H-indole-6-carbonyl] pyrrolidin-3-one] | 5.30 to 6.70 | 6.70 to 7.70 | 5.30 to 6.70 | 5.30 to 6.70 | 6.00 to 7.00 | – |
| N#Cc1ccc2c(-c3nc(N[C@@H]4CCC5(CCC5)NC4)ncc3C(F)(F)F)c[nH]c2c1 (single isomer, unassigned) [Compound 377] | 5.30 to 6.70 | > 7.70 | 5.30 to 6.70 | < 5.30 | 6.00 to 7.00 | – |
| CC[C@@]1(O)CCN(C(=O)c2ccc3c(-c4nc(N[C@H]5CCCNC5)ncc4C(F)(F)F)c[nH]c3c2)C1 (single isomer, unassigned) [Compound 309] | 5.30 to 6.70 | 6.70 to 7.70 | < 5.30 | < 5.30 | 5.30 to 6.00 | – |
| Cc1noc([C@H]2CC[C@H](Nc3ncc(C(F)(F)F)c(-c4c[nH]c5cc(C#N)ccc45)n3)CN2)n1 [Compound 358] | < 5.30 | 6.70 to 7.70 | < 5.30 | < 5.30 | 6.00 to 7.00 | – |
| O=C(c1ccc2c(-c3nc(N[C@H]4CCCNC4)ncc3C(F)(F)F)c[nH]c2c1)N1C[C@H](O)C(F)(F)C1 [Compound 308, [(4S)-3,3-difluoro-4-hydroxy-pyrrolidin-1-yl]-[3-[2-[[(3S)-3-piperidyl]amino]-5-(trifluoromethyl)pyrimidin-4-yl]-1H-indol-6-yl]methanone] | 5.30 to 6.70 | > 7.70 | 5.30 to 6.70 | 5.30 to 6.70 | 6.00 to 7.00 | – |
